The supplement of paper PMC8741786
In brackets after ≈: the same amount, converted by molar mass.

Assays:
[1] = system: Neisseria subflava/flavescens/perflava; test: minimum inhibitory concentration (ETEST); conditions: population: general population, antibiotic use in previous 6 months: No
Protocol: (§1)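 Oropharyngeal Neisseria isolates from MSM and employees in Belgium were identified to species by MALDI-TOF MS. MICs of azithromycin, ceftriaxone and ciprofloxacin were determined by ETEST on GC agar after 24 h at 36.5 °C and 5-7% CO2, in mg/L. Values beyond the strip range are reported as >256 (azithromycin) or <0.016 (ceftriaxone); isolates that did not grow are NA.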

[2] = system: Neisseria meningitidis; test: minimum inhibitory concentration (ETEST)
Protocol: as §1

## CO/N=C(\C(=O)N[C@@H]1C(=O)N2C(C(=O)O)=C(CSc3nc(=O)c(O)nn3C)CS[C@H]12)c1csc(N)n1 [ceftriaxone]
[1]; isolate id (sample isolate): Co000788_5
  minimum inhibitory concentration: 0.016 µg/mL (≈ 0.0289 µM)
[1]; isolate id (sample isolate): Co000789_1
  minimum inhibitory concentration: 0.032 µg/mL (≈ 0.0577 µM)
[1]; isolate id (sample isolate): Co000790_2
  minimum inhibitory concentration: 0.032 µg/mL (≈ 0.0577 µM)
[1]; isolate id (sample isolate): Co000790_4
  minimum inhibitory concentration: 0.047 µg/mL (≈ 0.0847 µM)
[2]; isolate id (sample isolate): 19040471_1, population: MSM, antibiotic use in previous 6 months: No
  minimum inhibitory concentration: < 0.016 µg/mL
[2]; isolate id (sample isolate): 19040855_1, population: MSM, antibiotic use in previous 6 months: No
  minimum inhibitory concentration: < 0.016 µg/mL
[2]; isolate id (sample isolate): 19040874_2, population: MSM, antibiotic use in previous 6 months: No
  minimum inhibitory concentration: 0.016 µg/mL (≈ 0.0289 µM)
[2]; isolate id (sample isolate): 19040900_2, population: MSM, antibiotic use in previous 6 months: No
  minimum inhibitory concentration: 0.023 µg/mL (≈ 0.0415 µM)
[2]; isolate id (sample isolate): 19042150_2, population: MSM, antibiotic use in previous 6 months: Yes
  minimum inhibitory concentration: < 0.016 µg/mL
[2]; isolate id (sample isolate): 19042756_3, population: MSM, antibiotic use in previous 6 months: Yes
  minimum inhibitory concentration: < 0.016 µg/mL
[2]; isolate id (sample isolate): 19043201_1, population: MSM, antibiotic use in previous 6 months: No
  minimum inhibitory concentration: < 0.016 µg/mL
[2]; isolate id (sample isolate): 19043201_2, population: MSM, antibiotic use in previous 6 months: No
  minimum inhibitory concentration: < 0.016 µg/mL
[2]; isolate id (sample isolate): 19043274_1, population: MSM, antibiotic use in previous 6 months: Yes
  minimum inhibitory concentration: < 0.016 µg/mL
[2]; isolate id (sample isolate): 19043274_2, population: MSM, antibiotic use in previous 6 months: Yes
  minimum inhibitory concentration: 0.016 µg/mL (≈ 0.0289 µM)
[2]; isolate id (sample isolate): 19051853_1, population: MSM, antibiotic use in previous 6 months: No
  minimum inhibitory concentration: < 0.016 µg/mL
[2]; isolate id (sample isolate): 19052394_3, population: MSM, antibiotic use in previous 6 months: Yes
  minimum inhibitory concentration: < 0.016 µg/mL
[2]; isolate id (sample isolate): 19052434_1, population: MSM, antibiotic use in previous 6 months: Yes
  minimum inhibitory concentration: < 0.016 µg/mL
[2]; isolate id (sample isolate): 19060069_1, population: MSM, antibiotic use in previous 6 months: Yes
  minimum inhibitory concentration: 0.064 µg/mL (≈ 0.115 µM)
[2]; isolate id (sample isolate): 19060069_2, population: MSM, antibiotic use in previous 6 months: Yes
  minimum inhibitory concentration: 0.064 µg/mL (≈ 0.115 µM)
[2]; isolate id (sample isolate): 19060089_2, population: MSM, antibiotic use in previous 6 months: Yes
  minimum inhibitory concentration: < 0.016 µg/mL
[2]; isolate id (sample isolate): 19061666_1, population: MSM, antibiotic use in previous 6 months: Yes
  minimum inhibitory concentration: 1 µg/mL (≈ 1.8 µM)
[2]; isolate id (sample isolate): 19062990_1, population: MSM, antibiotic use in previous 6 months: Yes
  minimum inhibitory concentration: < 0.016 µg/mL
[2]; isolate id (sample isolate): 19070019_2, population: MSM, antibiotic use in previous 6 months: No
  minimum inhibitory concentration: 0.047 µg/mL (≈ 0.0847 µM)
[2]; isolate id (sample isolate): 19070019_4, population: MSM, antibiotic use in previous 6 months: No
  minimum inhibitory concentration: 0.064 µg/mL (≈ 0.115 µM)
[2]; isolate id (sample isolate): 19070047_1, population: MSM, antibiotic use in previous 6 months: No
  minimum inhibitory concentration: < 0.016 µg/mL
[2]; isolate id (sample isolate): 19082621_2, population: MSM, antibiotic use in previous 6 months: No
  minimum inhibitory concentration: < 0.016 µg/mL
[2]; isolate id (sample isolate): 19091461_1, population: MSM, antibiotic use in previous 6 months: No
  minimum inhibitory concentration: < 0.016 µg/mL
[2]; isolate id (sample isolate): 19091461_2, population: MSM, antibiotic use in previous 6 months: No
  minimum inhibitory concentration: < 0.016 µg/mL
[2]; isolate id (sample isolate): 19091973_1, population: MSM, antibiotic use in previous 6 months: No
  minimum inhibitory concentration: < 0.016 µg/mL
[2]; isolate id (sample isolate): 19092429_3, population: MSM, antibiotic use in previous 6 months: No
  minimum inhibitory concentration: < 0.016 µg/mL
[2]; isolate id (sample isolate): 19103457_1, population: MSM, antibiotic use in previous 6 months: No
  minimum inhibitory concentration: < 0.016 µg/mL
[2]; isolate id (sample isolate): 19103457_4, population: MSM, antibiotic use in previous 6 months: No
  minimum inhibitory concentration: < 0.016 µg/mL
[2]; isolate id (sample isolate): 19110394_1, population: MSM, antibiotic use in previous 6 months: No
  minimum inhibitory concentration: < 0.016 µg/mL
[2]; isolate id (sample isolate): 19113049_3, population: MSM, antibiotic use in previous 6 months: No
  minimum inhibitory concentration: < 0.016 µg/mL
[2]; isolate id (sample isolate): 19113049_6, population: MSM, antibiotic use in previous 6 months: No
  minimum inhibitory concentration: < 0.016 µg/mL
[2]; isolate id (sample isolate): Co000765_1, population: general population, antibiotic use in previous 6 months: No
  minimum inhibitory concentration: < 0.016 µg/mL
[2]; isolate id (sample isolate): Co000790_1, population: general population, antibiotic use in previous 6 months: No
  minimum inhibitory concentration: < 0.016 µg/mL
[2]; isolate id (sample isolate): Co000790_3, population: general population, antibiotic use in previous 6 months: No
  minimum inhibitory concentration: < 0.016 µg/mL
